Results reported in paper PMC3050433, “The effects of maribavir on the autophosphorylation of ganciclovir resistant mutants of the cytomegalovirus UL97 protein” (Herpesviridae, 2010).
Where a chain is given by its changes, count along the chain named. Entries after “also recorded” stand apart in the source; their conditions may differ.

Key:
Details in all cases: wild type normalised to 100%
UL97 D456A = target: T1, UL97 D456A (Human cytomegalovirus, UniProt Q68101, D456A); assay: GCV phosphorylation in baculovirus-infected Sf21 insect cells, D456A; format: cell-based
T1 construct: PCR reaction to generate the full length UL97; honey bee melittin secretion signal (N); made in house; host or cells: Sf21 insect cells, recombinant baculovirus (pMelBac C)
T1 sequence (Q68101 1-707 D456A): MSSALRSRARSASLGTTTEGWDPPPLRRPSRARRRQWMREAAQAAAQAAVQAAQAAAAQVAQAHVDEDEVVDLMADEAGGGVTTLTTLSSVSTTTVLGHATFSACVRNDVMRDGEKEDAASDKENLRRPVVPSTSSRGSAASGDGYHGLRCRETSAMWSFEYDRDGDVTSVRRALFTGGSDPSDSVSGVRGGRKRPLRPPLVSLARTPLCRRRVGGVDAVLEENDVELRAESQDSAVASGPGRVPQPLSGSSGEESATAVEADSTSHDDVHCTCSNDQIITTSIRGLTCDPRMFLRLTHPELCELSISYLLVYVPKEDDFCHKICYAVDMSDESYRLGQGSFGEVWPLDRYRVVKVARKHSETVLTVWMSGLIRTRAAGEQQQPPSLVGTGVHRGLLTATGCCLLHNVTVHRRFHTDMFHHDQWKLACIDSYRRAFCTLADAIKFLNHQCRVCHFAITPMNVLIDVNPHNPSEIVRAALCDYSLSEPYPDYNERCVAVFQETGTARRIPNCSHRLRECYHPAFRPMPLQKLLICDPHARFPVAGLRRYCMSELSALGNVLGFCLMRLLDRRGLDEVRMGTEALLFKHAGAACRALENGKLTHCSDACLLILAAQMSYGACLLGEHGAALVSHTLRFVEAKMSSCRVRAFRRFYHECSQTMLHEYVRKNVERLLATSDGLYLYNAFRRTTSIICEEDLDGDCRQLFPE
Description: (§1) Sf21 insect cells were infected with wild type or mutant UL97 recombinant baculoviruses at an m.o.i. of 10. After 48 h incubation at 28°C, the culture medium was replaced with fresh medium containing 1.0 mM GCV and [^3H] GCV (0.55 Mbq, Moravek Radiochemicals, California, USA) After a further 24 hours of incubation, nucleotides were harvested by acid hydrolysis (0.5 M perchloric acid), neutralisation to pH 7.5 (2.5 M KOH, 1.5 M KH2PO4) and centrifugation (13000 × g). 50 μl aliquots of supernatant were spotted onto 20 mm diameter DEAE-coated DE81 chromatographic paper discs and the monophosphorylated GCV allowed to bind. The discs were washed twice in 3 ml 10 mM ammonium acetate for 10 minutes and twice in 95% ethanol for 10 minutes. After drying 5 ml of sigmafluor was added (Sigma Chemicals, Dorset, UK) and the radioactivity determined by liquid scintillation counting.

UL97 K355Q = target: T2, UL97 K355Q (Human cytomegalovirus, UniProt Q68101, K355Q); assay: GCV phosphorylation in baculovirus-infected Sf21 insect cells, K355Q; format: cell-based
T2 construct: PCR reaction to generate the full length UL97; honey bee melittin secretion signal (N); expressed in transfected cells; host or cells: Sf21 insect cells infected with recombinant baculovirus
T2 sequence (Q68101 1-707 K355Q): T1 sequence (Q68101 1-707 D456A) with K355Q, A456D
Description: as §1

UL97 N461G = assay: GCV phosphorylation in baculovirus-infected Sf21 insect cells, N461G; format: cell-based, human cytomegalovirus
Description: as §1

## Nc1nc(O)c2ncn(COC(CO)CO)c2n1 [GCV, ganciclovir]
UL97 D456A
  GCV phosphorylation relative to wild type UL97: no effect on GCV phosphorylation
UL97 K355Q
  GCV phosphorylation relative to wild type UL97: unable to phosphorylate GCV; also recorded: complete loss of GCV kinase activity
UL97 N461G
  GCV phosphorylation relative to wild type UL97: complete loss of GCV kinase activity
